Test results reported in US12691114B2, “Compositions for inhibition of herpesviruses” (The Medical College of Wisconsin, Inc., priority 2020, dated 2026).

Columns and labels:
[1] = target: pp28-luciferase Towne HCMV; test: Drug combination with GCV, pp28-luciferase Towne, Bliss model; assay type: cell-based, human cytomegalovirus; conditions: combination experiment with GCV, pp28-luciferase; read-out: EC50 (μM) of Compound 2
Procedure: (§1) Drug combination and analysis: These experiments were performed as previously reported^40. The combination of GCV and each compound was tested using the pp28-luciferase. Briefly, 2×10^6 HFFs/plate were seeded in 96-well plates and infected with the pp28-luciferase Towne HCMV strain (MOI=1). First, a dose response curve was generated for each drug individually to determine its EC50. Then, drugs were combined at twice their EC50, diluted in DMEM with 4% FBS, followed by serial dilution and added together after infection. Luciferase activity of the combination and each drug individually was quantified at 72 hpi. The combination of letermovir and each of the new compounds was tested by the plaque assay using TB40. The same principle applied in this assay for the drug combination effect, and plaques were counted at 8 dpi. The Bliss model was used to calculate the effect of each drug combination on pp28-luciferase activity and plaque reduction. In this model, drug combination represents the product of two probabilistically independent events as described in the following equation^41.
[formula] Where D is the drug concentration, m is the slope, and EC50 is the effective concentration resulting in 50% virus inhibition. The combined effect of two inhibitors (Fu, fractional unaffected) is computed as the product of individual effects of the two inhibitors, Fu1 and Fu2. If the ratio of observed fold inhibition divided by the expected fold inhibition is greater than 1, the compounds are synergistic. If the ratio is less than 1, the combination is considered antagonistic, and if it equals to 1 the combination is additive.
(§2) Pattern of drug combination with GCV and letermovir: The effect of each compound alone or in combination with GCV or letermovir was tested in HCMV-infected HFFs. […] For letermovir and its combination with each of the five compounds the EC50 was determined based on plaque assay. […] All other combinations and Bliss coefficients were measured by pp28- luciferase.

HSV2 clinical isolate = test: Plaque reduction assay, HSV2 in Vero cells; assay type: cell-based, Human Herpesvirus 2; conditions: plaque reduction
Excerpt: Viruses and antiviral assays: A recombinant pp28-luciferase Towne HCMV strain expressing luciferase under the control of the UL99 (pp28) late promoter was reported to provide a highly-sensitive and reproducible reporter for drug screening^20. A GCV-resistant HCMV pp28-luciferase that contains a C607Y mutation in UL97 was reported^37. The HCMV TB40 strain was obtained from ATCC (VR-1578). Clinical isolates of Human Herpesvirus 1 and 2 (HSV1, HSV2) were collected from the Johns Hopkins Microbiology laboratory without identifiers that could link them to a specific patient. Mouse CMV (MCMV) Smith strain (ATCC VR-1399) was used for infection of MEFs.
Plaque reduction assay: HFFs were seeded into 12-well plates (2×10^5 cells/well) and infected with HCMV TB40 at approximately 100 plaques/well. After 90 min, media were aspirated, and DMEM containing 0.5% carboxymethyl-cellulose (CMC), 4% fetal bovine serum (FBS), and drugs were added into duplicate wells. Following incubation at 37° C. for 10-12 days the overlay was removed, and plaques were counted after crystal violet staining. For HSV1 and HSV2 replication in Vero cells, the adsorption time was 60 min and plaques were counted after 36 h. Plaque assays in MEFs were completed after 3 days.
Inhibition of other herpesviruses: Inhibition of herpes simplex 1 and 2 (HSV1, HSV2), Epstein Barr virus (EBV) and mouse CMV (MCMV) was tested with the five compounds. Plaque reductions assays were used for HSV1, HSV2 and MCMV. Inhibition of lytic EBV replication was measured by real-time PCR in AKATA cells following IgG induction. Only MLS8554 was active against HSV1, HSV2 and MCMV (Table 2).

GCV-resistant HCMV Towne = test: Plaque reduction assay, GCV-resistant HCMV Towne in HFFs; assay type: cell-based, human cytomegalovirus; conditions: Human betaherpesvirus 5, read-out: EC50—GCVR Towne (μM)
MEFs = test: Toxicity to MEFs; assay type: cell-based, mouse
HCMV = test: Drug combination of GCV and 2955 by plaque assay, Bliss model; assay type: cell-based, human cytomegalovirus; conditions: Human betaherpesvirus 5; combination experiment with GCV, plaque assay; read-out: EC50 (μM) of Compound 2
Procedure: as §1, with “In this model, drug combination represents the product of two probabilistically independent events as described in the following equation^41.” left out
as §2

| Compound | EC50 [1] [µM] | activity against HSV2, in words (HSV2 clinical isolate) | EC50 (HSV2 clinical isolate; Vero cells, NA = Not active, read-out: EC50—HSV2-C1) [nM] | EC50 (GCV-resistant HCMV Towne) [µM] | concentration at which toxicity to MEFs was observed (MEFs) [µM] | EC50 (HCMV) [µM] |
| --- | --- | --- | --- | --- | --- | --- |
| Nc1c(S(=O)(=O)c2cccs2)c2nc3ccccc3nc2n1Cc1ccccc1 [MLS8091] | 0.57 ± 0.07 |  |  |  |  |  |
| CCc1ccc(NC(=O)[C@H](Cc2c[nH]c3ccccc23)NC(=O)[C@@H]2Cc3ccccc3CN2)cc1 [MLS8554] | 0.55 ± 0.02 | active | 1300 ± 100 |  |  |  |
| CC(C)NC(=O)C1CCN(C(=O)c2cc3sccc3n2Cc2ccc(Cl)cc2)CC1 [NCGC2955, 1-(4-(4-chlorobenzyl)-4H-thieno[3,2-b]pyrrole-5-carbonyl)-N-isopropylpiperidine-4-carboxamide] |  |  |  | 1.4 ± 0.2 | ≥ 10 | 1.51 ± 0.03 |
